Reference: the NIST ThermoML archive (doi:10.1021/acs.jced.7b00106)
Numbers after ± are expanded uncertainties.

Conditions: Hot wire method

FC(F)(F)/C=C/Cl [(E)-1-chloro-3,3,3-trifluoroprop-1-ene]
Conditions	thermal conductivity [W/m/K]
343.36 K, 65455 kPa, Liquid	0.09919 ± 0.0076
343.39 K, 244 kPa, Gas	0.01403 ± 0.0005
343.41 K, 34281 kPa, Liquid	0.08798 ± 0.0079
343.43 K, 53923 kPa, Liquid	0.09546 ± 0.008
343.44 K, 254 kPa, Gas	0.0143 ± 0.0005
343.54 K, 43743 kPa, Liquid	0.09133 ± 0.0079
343.62 K, 34264 kPa, Liquid	0.08757 ± 0.0066
343.63 K, 177 kPa, Gas	0.01444 ± 0.00051
343.68 K, 26051 kPa, Liquid	0.08479 ± 0.0055
343.71 K, 368 kPa, Gas	0.01422 ± 0.0005
343.72 K, 113 kPa, Gas	0.01433 ± 0.00051
343.77 K, 19020 kPa, Liquid	0.08131 ± 0.0047
343.82 K, 116 kPa, Gas	0.01436 ± 0.00051
343.85 K, 65463 kPa, Liquid	0.09884 ± 0.0065
343.89 K, 252 kPa, Gas	0.01433 ± 0.00051
343.9 K, 26047 kPa, Liquid	0.08436 ± 0.0032
343.93 K, 12786 kPa, Liquid	0.07777 ± 0.0024
343.93 K, 53925 kPa, Liquid	0.09489 ± 0.0078
343.97 K, 19023 kPa, Liquid	0.08066 ± 0.0046
344.06 K, 43740 kPa, Liquid	0.09102 ± 0.0049
344.06 K, 65472 kPa, Liquid	0.09859 ± 0.0066
344.08 K, 176 kPa, Gas	0.01441 ± 0.00051
344.15 K, 365 kPa, Gas	0.0142 ± 0.0005
344.15 K, 53918 kPa, Liquid	0.09481 ± 0.0079
344.17 K, 12778 kPa, Liquid	0.07722 ± 0.0032
344.2 K, 113 kPa, Gas	0.01446 ± 0.00051
344.28 K, 117 kPa, Gas	0.01435 ± 0.00051
344.3 K, 43734 kPa, Liquid	0.09086 ± 0.005
344.35 K, 250 kPa, Gas	0.01435 ± 0.00051
344.48 K, 465 kPa, Gas	0.01396 ± 0.00049
344.56 K, 175 kPa, Gas	0.01444 ± 0.00051
344.7 K, 114 kPa, Gas	0.01426 ± 0.0005
344.79 K, 119 kPa, Gas	0.01436 ± 0.00051
344.84 K, 248 kPa, Gas	0.01433 ± 0.00051
344.84 K, 463 kPa, Gas	0.01404 ± 0.00058
344.95 K, 465 kPa, Gas	0.01434 ± 0.00054
345.08 K, 174 kPa, Gas	0.01445 ± 0.00051
345.19 K, 360 kPa, Gas	0.01419 ± 0.0005
345.23 K, 114 kPa, Gas	0.01452 ± 0.00051
345.31 K, 120 kPa, Gas	0.01441 ± 0.00051
345.34 K, 463 kPa, Gas	0.01431 ± 0.00052
345.37 K, 246 kPa, Gas	0.01436 ± 0.00051
345.44 K, 465 kPa, Gas	0.0143 ± 0.0005
345.7 K, 358 kPa, Gas	0.01431 ± 0.0005
345.9 K, 245 kPa, Gas	0.01451 ± 0.00051
361.58 K, 586 kPa, Fluid (supercritical or subcritical phases)	0.01605 ± 0.0014
361.67 K, 483 kPa, Fluid (supercritical or subcritical phases)	0.01602 ± 0.0013
361.68 K, 45282 kPa, Liquid	0.08799 ± 0.0024
361.69 K, 33938 kPa, Liquid	0.0832 ± 0.0012
361.69 K, 33954 kPa, Liquid	0.08326 ± 0.0029
361.7 K, 45281 kPa, Liquid	0.08796 ± 0.0018
361.73 K, 23489 kPa, Liquid	0.07844 ± 0.0025
361.74 K, 23503 kPa, Liquid	0.07846 ± 0.0029
361.77 K, 371 kPa, Fluid (supercritical or subcritical phases)	0.01613 ± 0.0014
361.79 K, 26408 kPa, Liquid	0.07982 ± 0.0022
361.8 K, 26407 kPa, Liquid	0.07977 ± 0.0018
361.83 K, 39898 kPa, Liquid	0.0857 ± 0.0085
361.83 K, 39907 kPa, Liquid	0.0857 ± 0.0086
361.88 K, 33923 kPa, Liquid	0.08317 ± 0.0014
361.89 K, 33938 kPa, Liquid	0.0832 ± 0.0017
361.92 K, 588 kPa, Fluid (supercritical or subcritical phases)	0.01611 ± 0.0016
361.93 K, 45278 kPa, Liquid	0.08791 ± 0.0016
361.94 K, 45270 kPa, Liquid	0.08806 ± 0.0016
361.98 K, 23477 kPa, Liquid	0.07836 ± 0.00088
361.98 K, 23492 kPa, Liquid	0.07838 ± 0.0018
362.01 K, 484 kPa, Fluid (supercritical or subcritical phases)	0.01607 ± 0.002
362.05 K, 26376 kPa, Liquid	0.07972 ± 0.0009
362.05 K, 26398 kPa, Liquid	0.07971 ± 0.0012
362.05 K, 39862 kPa, Liquid	0.08563 ± 0.0016
362.08 K, 39906 kPa, Liquid	0.08546 ± 0.0021
362.14 K, 33914 kPa, Liquid	0.08314 ± 0.00095
362.14 K, 33942 kPa, Liquid	0.08313 ± 0.0019
362.16 K, 19344 kPa, Liquid	0.07625 ± 0.00088
362.18 K, 23467 kPa, Liquid	0.07857 ± 0.0022
362.19 K, 8420 kPa, Liquid	0.06998 ± 0.0011
362.2 K, 3010 kPa, Liquid	0.06622 ± 0.00079
362.2 K, 8440 kPa, Liquid	0.07 ± 0.00083
362.2 K, 45249 kPa, Liquid	0.0878 ± 0.004
362.2 K, 45283 kPa, Liquid	0.08787 ± 0.0021
362.21 K, 3023 kPa, Liquid	0.06627 ± 0.00076
362.21 K, 23488 kPa, Liquid	0.07836 ± 0.0013
362.23 K, 790 kPa, Liquid	0.06431 ± 0.0035
362.23 K, 805 kPa, Liquid	0.06452 ± 0.0023
362.24 K, 5520 kPa, Liquid	0.06804 ± 0.00086
362.24 K, 5538 kPa, Liquid	0.06811 ± 0.001
362.26 K, 19400 kPa, Liquid	0.07636 ± 0.00085
362.27 K, 587 kPa, Fluid (supercritical or subcritical phases)	0.01619 ± 0.002
362.3 K, 11679 kPa, Liquid	0.07201 ± 0.00085
362.3 K, 11690 kPa, Liquid	0.07201 ± 0.00091
362.31 K, 39856 kPa, Liquid	0.08563 ± 0.0017
362.31 K, 39891 kPa, Liquid	0.08561 ± 0.0014
362.32 K, 26374 kPa, Liquid	0.07971 ± 0.0011
362.32 K, 26405 kPa, Liquid	0.07971 ± 0.0011
362.37 K, 484 kPa, Fluid (supercritical or subcritical phases)	0.0162 ± 0.0018
362.41 K, 33911 kPa, Liquid	0.0832 ± 0.0013
362.42 K, 8419 kPa, Liquid	0.06999 ± 0.0017
362.42 K, 33938 kPa, Liquid	0.08309 ± 0.001
362.44 K, 8433 kPa, Liquid	0.06997 ± 0.0017
362.46 K, 3010 kPa, Liquid	0.0662 ± 0.0012
362.47 K, 3011 kPa, Liquid	0.0662 ± 0.0012
362.47 K, 15419 kPa, Liquid	0.0741 ± 0.00083
362.47 K, 23460 kPa, Liquid	0.07827 ± 0.0058
362.48 K, 5516 kPa, Liquid	0.06801 ± 0.0016
362.48 K, 15443 kPa, Liquid	0.07414 ± 0.001
362.48 K, 23476 kPa, Liquid	0.07831 ± 0.004
362.48 K, 45268 kPa, Liquid	0.08777 ± 0.0021
362.48 K, 45271 kPa, Liquid	0.08777 ± 0.0021
362.49 K, 790 kPa, Liquid	0.06443 ± 0.0012
362.49 K, 5526 kPa, Liquid	0.06804 ± 0.0011
362.5 K, 790 kPa, Liquid	0.06446 ± 0.0013
362.51 K, 370 kPa, Fluid (supercritical or subcritical phases)	0.01626 ± 0.0014
362.54 K, 11661 kPa, Liquid	0.0719 ± 0.0019
362.55 K, 11680 kPa, Liquid	0.07196 ± 0.0015
362.57 K, 39863 kPa, Liquid	0.08553 ± 0.0019
362.58 K, 39864 kPa, Liquid	0.08552 ± 0.0019
362.6 K, 26399 kPa, Liquid	0.07968 ± 0.0016
362.6 K, 26401 kPa, Liquid	0.07967 ± 0.0016
362.61 K, 19433 kPa, Liquid	0.07636 ± 0.0012
362.65 K, 15399 kPa, Liquid	0.07408 ± 0.001
362.66 K, 587 kPa, Fluid (supercritical or subcritical phases)	0.0163 ± 0.0022
362.66 K, 15425 kPa, Liquid	0.07408 ± 0.00098
362.67 K, 8422 kPa, Liquid	0.06992 ± 0.0013
362.68 K, 8413 kPa, Liquid	0.06988 ± 0.0018
362.69 K, 33907 kPa, Liquid	0.08302 ± 0.0059
362.69 K, 33929 kPa, Liquid	0.08306 ± 0.0032
362.7 K, 19433 kPa, Liquid	0.07633 ± 0.0015
362.74 K, 5502 kPa, Liquid	0.06792 ± 0.0012
362.75 K, 3008 kPa, Liquid	0.06615 ± 0.00098
362.75 K, 3026 kPa, Liquid	0.06618 ± 0.00099
362.75 K, 5530 kPa, Liquid	0.06798 ± 0.00077
362.75 K, 23458 kPa, Liquid	0.07811 ± 0.0018
362.75 K, 23492 kPa, Liquid	0.07827 ± 0.002
362.75 K, 45227 kPa, Liquid	0.08785 ± 0.0013
362.76 K, 484 kPa, Fluid (supercritical or subcritical phases)	0.01624 ± 0.0016
362.76 K, 45255 kPa, Liquid	0.08771 ± 0.0017
362.77 K, 783 kPa, Liquid	0.06438 ± 0.0012
362.77 K, 802 kPa, Liquid	0.06442 ± 0.00097
362.8 K, 11664 kPa, Liquid	0.07188 ± 0.0012
362.81 K, 11670 kPa, Liquid	0.07191 ± 0.00093
362.83 K, 15386 kPa, Liquid	0.07403 ± 0.0011
362.86 K, 39872 kPa, Liquid	0.08551 ± 0.00099
362.87 K, 15400 kPa, Liquid	0.07403 ± 0.0015
362.87 K, 39835 kPa, Liquid	0.08548 ± 0.0013
362.89 K, 367 kPa, Fluid (supercritical or subcritical phases)	0.01631 ± 0.00069
362.89 K, 26375 kPa, Liquid	0.07958 ± 0.0024
